Test results as given in PubChem BioAssay AID1601.
pEC50: −log10 of the molar value. Records with an inconclusive call do not appear. Where a SMILES comes first, the peptide text is derived from it.

Test system: mutant SOD1 cell death rescue, 1 uM
Experiment: protection from mutant SOD1-driven cell killing (AID 1601)

SMILES | pEC50
CC(C)=CCC/C(C)=C/CO | 5.92
CC(=O)NS(=O)(=O)c1ccc(N)cc1 | 5.68
CC(C)NCC(O)c1ccc(O)c(O)c1 (centres undefined) | 6.00
CC[C@@H](CO)NCCN[C@@H](CC)CO | 5.54
CCCC(CCC)C(=O)O | 6.15
CC(C)COCC(CN(Cc1ccccc1)c1ccccc1)N1CCCC1 (centres undefined) | 6.00
CC[C@H]1OC(=O)[C@H](C)[C@@H](O[C@H]2C[C@@](C)(OC)[C@@H](O)[C@H](C)O2)[C@H](C)[C@@H](O[C@@H]2O[C@H](C)C[C@H](N(C)C)[C@H]2O)[C@](C)(O)C[C@@H](C)CN(C)[C@H](C)[C@@H](O)[C@]1(C)O | 6.05
NCCCCC(N)C(=O)NC(Cc1c[nH]c2ccccc12)C(=O)NC(CCCCN)C(=O)O (stereo not drawn) (H-Lys-Trp-Lys-OH; configuration not given here) | 5.07
Cc1cc(C(C)(C)CC(C)(C)C)ccc1OCCOCC[N+](C)(C)Cc1ccccc1 | 7.00
